Patent US7470711B2, “Piperidinyl substituted cyclohexane-1,4-diamines” (Janssen Pharmaceutica N.V., priority 2005, dated 2008)
Where two headings read alike, the source gives them in different places.

Key:
[1] = biological target: T1, α1b-AR (Homo sapiens, UniProt P35368); experiment: α1-Adrenergic receptor radio-ligand binding assay, α1b subtype
T1 construct: expressed in transfected cells; host or cells: COS-7 cells (membranes)
T1 sequence (P35368 1-520): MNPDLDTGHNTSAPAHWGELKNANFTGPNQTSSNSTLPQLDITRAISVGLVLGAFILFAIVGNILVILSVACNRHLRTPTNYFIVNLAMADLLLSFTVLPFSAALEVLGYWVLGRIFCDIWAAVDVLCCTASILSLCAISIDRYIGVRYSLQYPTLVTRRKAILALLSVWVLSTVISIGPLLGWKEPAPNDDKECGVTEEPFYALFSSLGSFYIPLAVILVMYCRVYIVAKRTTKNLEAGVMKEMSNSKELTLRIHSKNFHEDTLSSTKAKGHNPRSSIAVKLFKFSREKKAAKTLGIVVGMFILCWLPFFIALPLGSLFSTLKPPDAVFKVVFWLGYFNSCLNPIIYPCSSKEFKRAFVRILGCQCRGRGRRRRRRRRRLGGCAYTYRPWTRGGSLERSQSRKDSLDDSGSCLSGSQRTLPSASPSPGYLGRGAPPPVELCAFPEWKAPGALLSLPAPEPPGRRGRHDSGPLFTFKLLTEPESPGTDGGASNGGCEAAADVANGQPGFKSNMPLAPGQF
Protocol: (§1) Membranes were prepared from COS-7 cells (African Green monkey kidney SV40-transformed cells) that had been transfected with one of the three α1-AR subtypes (Genbank accession number for the α1a subtype: AF013261; Genbank accession number for the α1b subtype: NM000679; Genbank accession number for the α1d subtype: NM000678) using the following method: COS cells from ten 100 mm tissue culture plates were scraped into a 5 mL volume of TE (a mixture of 50 mM Tris-HCl, 5 mM EDTA, pH 7.4). […] The disrupted cells were centrifuged at 1000×g for 10 min at 4° C. Supernatants were centrifuged at 34,500×g for 20 min at 4° C. The membrane pellets were suspended in a 2 mL volume of TNE (a mixture of 50 mM Tris-HCl, 5 mM EDTA and 150 mM NaCl at pH 7.4). An aliquot of the membrane suspension was stored at −70° C. until use. The protein concentration was determined using the BioRad “DC” protein assay kit following membrane solubilization with Triton X-100.
(§2) Triplicate determinations of radio-ligand binding in the presence of increasing concentrations of testing compound were made. The reagents were added to 96-well polypropylene plate wells. […] The plate was incubated at rt for 1 hr. The contents of the wells were filtered through a glass filter (type C) (GF/C) membrane Unifilter plate (Packard Instruments) using the Packard Filtermate cell harvester. The filter plates were dried in a vacuum oven for 30 min at 40° C. 25 μL Microscint 20 liquid scintillation fluid (Packard Instuments) was added to each well. The radioactive content was analyzed in the TopCount microplate scintillation counter (Packard Instruments).

[2] = biological target: T2, α1a-AR (Homo sapiens, UniProt P35348); experiment: α1-Adrenergic receptor radio-ligand binding assay, α1a subtype
T2 construct: expressed in transfected cells; host or cells: COS-7 cells (membranes)
T2 sequence (P35348 1-455 isoform P35348-4): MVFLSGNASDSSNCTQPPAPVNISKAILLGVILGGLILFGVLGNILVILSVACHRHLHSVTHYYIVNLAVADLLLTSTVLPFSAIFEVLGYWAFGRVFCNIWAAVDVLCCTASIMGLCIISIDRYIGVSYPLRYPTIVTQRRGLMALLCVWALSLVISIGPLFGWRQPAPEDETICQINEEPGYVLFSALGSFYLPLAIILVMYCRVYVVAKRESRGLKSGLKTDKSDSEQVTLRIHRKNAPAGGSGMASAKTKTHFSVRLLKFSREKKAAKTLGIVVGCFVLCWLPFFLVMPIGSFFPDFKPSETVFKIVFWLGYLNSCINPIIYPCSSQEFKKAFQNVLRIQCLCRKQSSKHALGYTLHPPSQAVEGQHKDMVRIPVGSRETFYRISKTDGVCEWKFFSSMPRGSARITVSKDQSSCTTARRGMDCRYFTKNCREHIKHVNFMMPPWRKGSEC
Protocol: as §1, §2

[3] = biological target: T3, α1d-AR (Homo sapiens, UniProt P25100); experiment: α1-Adrenergic receptor radio-ligand binding assay, α1d subtype
T3 construct: expressed in transfected cells; host or cells: COS-7 cells (membranes)
T3 sequence (P25100 1-572): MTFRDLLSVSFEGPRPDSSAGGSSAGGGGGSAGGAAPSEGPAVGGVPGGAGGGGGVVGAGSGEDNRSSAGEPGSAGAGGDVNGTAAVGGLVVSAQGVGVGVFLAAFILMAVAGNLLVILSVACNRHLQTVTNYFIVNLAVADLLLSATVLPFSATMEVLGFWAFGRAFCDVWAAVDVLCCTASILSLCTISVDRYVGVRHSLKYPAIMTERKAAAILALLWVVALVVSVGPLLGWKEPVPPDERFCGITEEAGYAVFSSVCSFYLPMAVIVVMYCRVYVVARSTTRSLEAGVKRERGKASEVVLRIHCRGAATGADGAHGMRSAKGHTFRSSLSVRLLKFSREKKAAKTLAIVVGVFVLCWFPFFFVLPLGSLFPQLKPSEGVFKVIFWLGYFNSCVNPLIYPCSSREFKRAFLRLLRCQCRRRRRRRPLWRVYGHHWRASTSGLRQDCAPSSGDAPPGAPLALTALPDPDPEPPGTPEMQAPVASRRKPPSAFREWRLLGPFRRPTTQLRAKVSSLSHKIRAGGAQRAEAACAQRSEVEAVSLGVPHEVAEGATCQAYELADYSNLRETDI
Protocol: as §1, §2

[4] = 125I-HEAT, membranes of COS-7 cells transfected with α1b subtype, rt 1 hr, read-out: Receptor Binding, Ki α1b-AR
[5] = 125I-HEAT, membranes of COS-7 cells transfected with α1a subtype, rt 1 hr, read-out: Receptor Binding, Ki α1a-AR
[6] = 125I-HEAT, membranes of COS-7 cells transfected with α1d subtype, rt 1 hr, read-out: Receptor Binding, Ki α1d-AR
[7] = read-out: Receptor Binding, Ki α1a-AR

Row | SMILES | Ki [1, 4] [nM] | Ki [2] [nM] | Ki [3] [nM] | Ki [2, 5] [nM] | Ki [3, 6] [nM] | Ki [1] [nM] | Ki [2, 7] [nM]
1 | COc1ccc(S(=O)(=O)N[C@H]2CC[C@@H](N3CCC(c4ccccc4OC(C)C)CC3)CC2)cc1OC [Cpd 1, N-cis-{4-[4-(2-isopropoxy-phenyl)-piperidin-1-yl]-cyclohexyl}-3,4-dimethoxy-benzenesulfonamide] | 144 | 1.2 | 1.8 |  |  |  | 
2 | COc1ccc(S(=O)(=O)N[C@H]2CC[C@H](N3CCC(c4ccccc4OC(C)C)CC3)CC2)cc1OC [Cpd 2, N-trans-{4-[4-(2-isopropoxy-phenyl)-piperidin-1-yl]-cyclohexyl}-3,4-dimethoxy-benzenesulfonamide] | 148 |  |  | 27.8 | 40.2 |  | 
3 | COc1ccc(S(=O)(=O)N[C@H]2CC[C@@H](N3CCC(c4ccccc4OCC(F)(F)F)CC3)CC2)cc1OC [Cpd 5, 3,4-dimethoxy-N-cis-(4-{4-[2-(2,2,2-trifluoro-ethoxy)-phenyl]-piperidin-1-yl}-cyclohexyl)-benzenesulfonamide] |  | 3 | 7.3 |  |  | 470 | 
4 | COc1ccc(S(=O)(=O)N[C@H]2CC[C@H](N3CCC(c4ccccc4OCC(F)(F)F)CC3)CC2)cc1OC [Cpd 6, 3,4-dimethoxy-N-trans-(4-{4-[2-(2,2,2-trifluoro-ethoxy)-phenyl]-piperidin-1-yl}-cyclohexyl)-benzenesulfonamide] |  | 1.4 | 88.6 |  |  | 1380 | 
5 | COc1ccc(S(=O)(=O)N[C@H]2CC[C@@H](N3CCC(c4ccccc4OC4CC4)CC3)CC2)cc1OC [Cpd 7, N-cis-{4-[4-(2-cyclopropoxy-phenyl)-piperidin-1-yl]-cyclohexyl}-3,4-dimethoxy-benzenesulfonamide] | 141 |  |  | 0.91 | 2 |  | 
6 | COc1ccc(S(=O)(=O)N[C@H]2CC[C@H](N3CCC(c4ccccc4OC4CC4)CC3)CC2)cc1OC [Cpd 8, N-trans-{4-[4-(2-cyclopropoxy-phenyl)-piperidin-1-yl]-cyclohexyl}-3,4-dimethoxy-benzenesulfonamide] | 133 | 10.8 | 33.6 |  |  |  | 
7 | COc1ccc(Cl)cc1S(=O)(=O)N[C@H]1CC[C@@H](N2CCC(c3ccccc3OC3CC3)CC2)CC1 [Cpd 9, 5-chloro-N-cis-{4-[4-(2-cyclopropoxy-phenyl)-piperidin-1-yl]-cyclohexyl}-2-methoxy-benzenesulfonamide] | 82 |  |  | 1.3 | 2.6 |  | 
8 | COc1ccc(Cl)cc1S(=O)(=O)N[C@H]1CC[C@H](N2CCC(c3ccccc3OC3CC3)CC2)CC1 [Cpd 10, 5-chloro-N-trans-{4-[4-(2-cyclopropoxy-phenyl)-piperidin-1-yl]-cyclohexyl}-2-methoxy-benzenesulfonamide] | 305 |  |  | 4.5 | 47 |  | 
9 | O=S(=O)(N[C@H]1CC[C@@H](N2CCC(c3ccccc3OC3CC3)CC2)CC1)c1cc(Cl)ccc1F [Cpd 11, 5-chloro-N-cis-{4-[4-(2-cyclopropoxy-phenyl)-piperidin-1-yl]-cyclohexyl}-2-fluoro-benzenesulfonamide] | 107 |  |  | 1.8 | 2.1 |  | 
10 | O=S(=O)(N[C@H]1CC[C@H](N2CCC(c3ccccc3OC3CC3)CC2)CC1)c1cc(Cl)ccc1F [Cpd 12, 5-chloro-N-trans-{4-[4-(2-cyclopropoxy-phenyl)-piperidin-1-yl]-cyclohexyl}-2-fluoro-benzenesulfonamide] | 337 |  |  | 3.8 | 32 |  | 
11 | O=S(=O)(N[C@H]1CC[C@@H](N2CCC(c3ccccc3OC3CC3)CC2)CC1)c1ccc(Cl)cc1Cl [Cpd 15, 2,4-dichloro-N-cis-{4-[4-(2-cyclopropoxy-phenyl)-piperidin-1-yl]-cyclohexyl}-benzenesulfonamide] | 839 |  |  | 79 | 6.1 |  | 
12 | O=S(=O)(N[C@H]1CC[C@H](N2CCC(c3ccccc3OC3CC3)CC2)CC1)c1ccc(Cl)cc1Cl [Cpd 16, 2,4-dichloro-N-trans-{4-[4-(2-cyclopropoxy-phenyl)-piperidin-1-yl]-cyclohexyl}-benzenesulfonamide] | 411 |  |  | 30.4 | 2.4 |  | 
13 | O=S(=O)(N[C@H]1CC[C@@H](N2CCC(c3ccccc3OC3CC3)CC2)CC1)c1ccc2c(c1)OCO2 [Cpd 21, benzo[1,3]dioxole-5-sulfonic acid cis-{4-[4-(2-cyclopropoxy-phenyl)-piperidin-1-yl]-cyclohexyl}-amide] |  | 15.6 | 13 |  |  | 275 | 
14 | O=S(=O)(N[C@H]1CC[C@H](N2CCC(c3ccccc3OC3CC3)CC2)CC1)c1ccc2c(c1)OCO2 [Cpd 22, benzo[1,3]dioxole-5-sulfonic acid trans-{4-[4-(2-cyclopropoxy-phenyl)-piperidin-1-yl]-cyclohexyl}-amide] |  | 14 | 57 |  |  | 340 | 
15 | COc1ccc(S(=O)(=O)N[C@H]2CC[C@@H](N3CCC(c4ccc(F)cc4OC(C)C)CC3)CC2)cc1OC [Cpd 31, N-cis-{4-[4-(4-fluoro-2-isopropoxy-phenyl)-piperidin-1-yl]-cyclohexyl}-3,4-dimethoxy-benzenesulfonamide] | 690 |  | 12.4 | 16 |  |  | 
16 | COc1ccc(S(=O)(=O)N[C@H]2CC[C@H](N3CCC(c4ccc(F)cc4OC(C)C)CC3)CC2)cc1OC [Cpd 32, N-trans-{4-[4-(4-fluoro-2-isopropoxy-phenyl)-piperidin-1-yl]-cyclohexyl}-3,4-dimethoxy-benzenesulfonamide] | 639 |  |  | 23 | 60 |  | 
17 | COc1ccc(S(=O)(=O)N[C@H]2CC[C@@H](N3CCC(c4cc(F)ccc4OC(C)C)CC3)CC2)cc1OC [Cpd 33, N-cis-{4-[4-(5-fluoro-2-isopropoxy-phenyl)-piperidin-1-yl]-cyclohexyl}-3,4-dimethoxy-benzenesulfonamide] | 299 |  |  |  | 1.6 |  | 3.3
18 | COc1ccc(S(=O)(=O)N[C@H]2CC[C@H](N3CCC(c4cc(F)ccc4OC(C)C)CC3)CC2)cc1OC [Cpd 34, N-trans-{4-[4-(5-fluoro-2-isopropoxy-phenyl)-piperidin-1-yl]-cyclohexyl}-3,4-dimethoxy-benzenesulfonamide] | 1490 |  |  |  | 53 |  | 43
